The nature of data set [1]: naltrexone release from payloaded matrices (in vitro release). The data set is classed as physicochemical. To be noted: in contrast to the hydrochloride form. Here is the method:
The number of days of release are shown on the horizontal axis (X axis). The cumulative percentage of naltrexone release is shown on the vertical axis (Y axis). […] Release was measured under conditions of about 37 degrees Celsius. Before release was measured, steps had been taken to incorporate (payload) naltrexone into the matrices.
The number of days of release are shown on the horizontal axis (X axis). The cumulative percentage of naltrexone release is shown on the vertical axis (Y axis). Before release was measured, steps had been taken to incorporate (payload) naltrexone into the matrices.
Exemplary Formula #1—PBS Buffer Containing 0.01% Sodium Azide as Suspension and Release Medium: • 1. To a 1 L volumetric flask, add the contents of 1 package of ready-to-use powder for PBS • 2. Add sodium azide ([…]) • 3. Add Millipore water to the calibration mark • 4. Dissolve all solids • 5. Store at 8 degrees celsius (max)

For data set [2] the following is noted: low dosages, about 3-5 mg/day; cited from earlier work.
Data set [3] deals with opioid receptor. The following applies: cited from earlier work.
For data set [4] the following is noted: in vivo, cited from earlier work.

Each structure is given as a SMILES string.

For `O=C1CC[C@@]2(O)[C@H]3Cc4ccc(O)c5c4[C@@]2(CCN3CC2CC2)[C@H]1O5` [naltrexone base, naltrexone], the release profiles entry in data set [1] is given as “meet preferred target criteria”.
In the case of `O=C1CC[C@@]2(O)[C@H]3Cc4ccc(O)c5c4[C@@]2(CCN3CC2CC2)[C@H]1O5` [naltrexone], the symptom severity entry in data set [2] was “reduce symptom severity”. In addition, in data set [3], the “potency relative to naloxone” value is listed as “twice the potency”. For the same compound, in data set [4] (po), the oral bioavailability result is “good oral bioavailability”. The duration of effect entry in data set [4] was “can last for a day”.

The values are drawn from patent US20170065579A1, “Sustained Release Low Dose Formulations and Uses Thereof” (priority 2015, published 2017).
